Several values for one entry are separate records, joined by “and”; a condition that tells them apart may be missing. Equal values may be shown once. Inconclusive results and toxic doses are left out. Cut-off read from the data, not from the text of the source: active = T/C of 150% or more; inactive = T/C below 125%.
System: L1210 leukemia ip in BDF1 mice, survival T/C
Test: NCI In Vivo Anticancer Drug Screen. Data for tumor model L1210 Leukemia (intraperitoneal) in B6D2F1 (BDF1) mice
Conditions: endpoint: mean survival time, higher = longer survival
In short: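 Tumor cells were implanted, animals were treated, and survival was followed. The result divides the treated measurement by the vehicle-control measurement.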

[1] = dose: 25.0 mg/kg/injection, schedule: Q04DX003 (ip), vehicle: saline
[2] = dose: 50.0 mg/kg/injection, schedule: Q04DX003 (ip), vehicle: saline
[3] = dose: 100.0 mg/kg/injection, schedule: Q01DX001 (ip), vehicle: saline
[4] = dose: 200.0 mg/kg/injection, schedule: Q01DX001 (ip), vehicle: saline
[5] = dose: 400.0 mg/kg/injection, schedule: Q01DX001 (ip), vehicle: saline
[6] = dose: 100.0 mg/kg/injection, schedule: Q04DX003 (ip), vehicle: saline
[7] = dose: 50.0 mg/kg/injection, schedule: Q01DX009 (ip), vehicle: saline
[8] = dose: 100.0 mg/kg/injection, schedule: Q01DX009 (ip), vehicle: saline
[9] = dose: 200.0 mg/kg/injection, schedule: Q01DX009 (ip), vehicle: saline
[10] = dose: 200.0 mg/kg/injection, schedule: Q04DX003 (ip), vehicle: saline
[11] = dose: 100.0 mg/kg/injection, schedule: Q04DX003 (ip), vehicle: saline with Tween-80
[12] = dose: 200.0 mg/kg/injection, schedule: Q04DX003 (ip), vehicle: saline with Tween-80
[13] = dose: 400.0 mg/kg/injection, schedule: Q04DX003 (ip), vehicle: saline with Tween-80

Measured: T/C

CCCCCCSC(=N)N
inactive: dose: 12.5 mg/kg/injection, schedule: Q01DX001 (ip), vehicle: saline 95 % of control | dose: 12.5 mg/kg/injection, schedule: Q04DX002 (ip), vehicle: saline 94 % of control and 97 % of control | dose: 12.5 mg/kg/injection, schedule: Q04DX003 (ip), vehicle: saline 119 % of control | dose: 25.0 mg/kg/injection, schedule: Q01DX001 (ip), vehicle: saline 100 % of control | dose: 25.0 mg/kg/injection, schedule: Q04DX002 (ip), vehicle: saline 94 % of control and 100 % of control | [1] 104 % of control | dose: 50.0 mg/kg/injection, schedule: Q01DX001 (ip), vehicle: saline 89 % of control | dose: 50.0 mg/kg/injection, schedule: Q04DX002 (ip), vehicle: saline 103 % of control and 106 % of control | [2] 102 % of control

CCCCCCC1(C)NC(=O)NC1=O (stereo not given)
inactive: [3] 102 % of control | [4] 100 % of control | [5] 96 % of control

CCCSc1ccccn1
inactive: [1] 101 % of control | [2] 93 % of control | [6] 95 % of control

O=C1OC(=O)c2c3c(c4c(c21)CCC4)CCC3
inactive: [7] 107 % of control | [3] 100 % of control | [8] 93 % of control | [6] 101 % of control | [4] 91 % of control | [9] 94 % of control | [10] 96 % of control | [5] 97 % of control

O=C1NC(c2ccccc2)(c2ccccc2)C(=O)N1CCN(CCCl)CCCl
inactive: dose: 12.5 mg/kg/injection, schedule: Q01DX009 (ip), vehicle: saline with Tween-80 116 % of control | dose: 25.0 mg/kg/injection, schedule: Q01DX009 (ip), vehicle: saline with Tween-80 102 % of control | dose: 50.0 mg/kg/injection, schedule: Q04DX003 (ip), vehicle: saline with Tween-80 105 % of control | dose: 100.0 mg/kg/injection, schedule: Q01DX009 (ip), vehicle: saline with Tween-80 121 % of control | [11] 116 % of control and 121 % of control

CCCN(CCC)c1ccc(N=Nc2cc(Cl)ccc2Cl)cc1
inactive: [11] 91 % of control | [12] 93 % of control | [13] 91 % of control

NNC(=O)CC(NN)c1ccccc1O (stereo not given)
inactive: dose: 100.0 mg/kg/injection, schedule: Q04DX002 (ip), vehicle: saline with Tween-80 90 % of control | dose: 200.0 mg/kg/injection, schedule: Q04DX002 (ip), vehicle: saline with Tween-80 100 % of control | dose: 400.0 mg/kg/injection, schedule: Q04DX002 (ip), vehicle: saline with Tween-80 102 % of control

ClCc1nc2nc(Cl)c(Cl)nc2[nH]1
inactive: [7] 88 % of control | [8] 102 % of control | [6] 101 % of control | [9] 102 % of control | [10] 101 % of control | dose: 400.0 mg/kg/injection, schedule: Q04DX003 (ip), vehicle: saline 98 % of control

C=CCNC(=S)NNC(=O)c1ccncc1
inactive: dose: 100.0 mg/kg/injection, schedule: Q01DX009 (ip), vehicle: Klucel (hydroxypropylcellulose) (HPC) 107 % of control | dose: 200.0 mg/kg/injection, schedule: Q01DX009 (ip), vehicle: Klucel (hydroxypropylcellulose) (HPC) 108 % of control | dose: 400.0 mg/kg/injection, schedule: Q01DX009 (ip), vehicle: Klucel (hydroxypropylcellulose) (HPC) 104 % of control

c1ccc(-c2ccc(-c3ccccc3)c(-c3ccc4c(c3)CCC4)c2-c2ccccc2)cc1
inactive: [11] 96 % of control | [12] 96 % of control | [13] 89 % of control

CCN(CC)C(=O)c1cc(NC(=O)Nc2ccc(C3=NCCN3)cc2)cc(NC(=O)Nc2ccc(C3=NCCN3)cc2)c1
inactive: dose: 62.0 mg/kg/injection, schedule: Q01DX Z (ip), vehicle: carboxymethylcellulose (CMC) 91 % of control | dose: 125.0 mg/kg/injection, schedule: Q01DX Z (ip), vehicle: carboxymethylcellulose (CMC) 97 % of control | dose: 250.0 mg/kg/injection, schedule: Q01DX Z (ip), vehicle: carboxymethylcellulose (CMC) 97 % of control | dose: 500.0 mg/kg/injection, schedule: Q01DX Z (ip), vehicle: carboxymethylcellulose (CMC) 88 % of control
